Measurements reported in patent US4081441A, “Antibacterial agents” (priority 1977, dated 1978).
Where a name gives a salt, the structure may show the parent alone. Read-outs that look alike come from different tables or passages of the source.

Tests used:
[1] = tested on: Pseudomonas aeruginosa; test: In vitro bactericidal synergism, broth dilution checkerboard; assay type: cell-based; settings: for MBC: Pseudomonas aeruginosa, drug alone
[2] = tested on: Pseudomonas aeruginosa A9843A; assay type: in vivo, mice; settings: intramuscular, mice; as effective as combination 1.25 mg./kg. BL-P1908 + 2 mg./kg. amikacin
[3] = tested on: Pseudomonas aeruginosa; settings: prior art; cited from earlier work

## NCC[C@H](O)C(=O)N[C@@H]1C[C@H](N)[C@@H](O[C@H]2O[C@H](CN)[C@@H](O)[C@H](O)[C@H]2O)[C@H](O)[C@H]1O[C@H]1O[C@H](CO)[C@@H](O)[C@H](N)[C@H]1O [Amikacin, 1-[L-(-)-γ-amino-α-hydroxybutryl]kanamycin A]
[1]; strain A20552, read-out: Minimum Bactericidal Concentration
  MBC: 8 µg/mL
[1]; strain A21509, read-out: Minimum Bactericidal Concentration
  MBC: 125 µg/mL
[1]; strain A21510, read-out: Minimum Bactericidal Concentration
  MBC: 64 µg/mL
[1]; strain A9843A
  strain sensitivity: sensitive
[1]; strain A20480
  strain sensitivity: sensitive
[1]; strain A20552
  strain sensitivity: sensitive
[1]; strain A20620
  strain sensitivity: resistant
[1]; strain A21509
  strain sensitivity: resistant
[1]; strain A21510
  strain sensitivity: resistant
[2]
  equally effective dosage, drug alone: 8 mg/kg

## NCC[C@H](O)C(=O)N[C@@H]1C[C@H](N)[C@@H](O[C@H]2O[C@H](CN)[C@@H](O)[C@H](O)[C@H]2O)[C@H](O)[C@H]1O[C@H]1O[C@H](CO)[C@@H](O)[C@H](N)[C@H]1O [amikacin sulfate]
[1]; read-out: Minimum Bactericidal Concentration, strain A9843A
  MBC: 4 µg/mL

## CC1(C)S[C@@H]2[C@H](NC(=O)C(c3ccccc3)S(=O)(=O)O)C(=O)N2[C@H]1C(=O)O (stereo partly shown) [sulbenicillin]
[3]
  potency against Pseudomonas aeruginosa: relatively low potency

## CC1(C)S[C@@H]2[C@H](NC(=O)[C@H](C(=O)O)c3ccsc3)C(=O)N2[C@H]1C(=O)O [ticarcillin]
[3]
  potency against Pseudomonas aeruginosa: relatively low potency
